Source: patent US20250049737A1, “Lauflumide and derivatives thereof for treating chronic fatigue syndrome and myalgic encephalomyelitis/chronic fatigue syndrome (ME/CFS)” (NLS Pharmaceutics AG, priority 2021, published 2025)
“Also recorded” adds a separate entry of the source.

Key:
[1] = tested on: cocaine conditioned place preference; conditions: 128 mg/kg; rats; cited from earlier work
[2] = tested on: Rat model of severe fatigue; experiment: Rat model of severe fatigue (sleep deprivation): recording of circadian locomotor activity; assay type: in vivo, Rats, Sprague-Dawley; conditions: for Difference of distance travelled between the dark phase and the light phase / Distance travelled during the 12-h dark phase / Distance travelled during the 12-h light phase / Total distance travelled during the full 24-h period: days 1, 2 and 3
Method: In the following example, Lauflumide is also called NLS-4.
Animals are individually housed in transparent polycarbonate cages (1354G Eurostandard Type IV cage, Tecniplast, Italy, 595×380×200 mm, floor area=1820 cm^2) filled with water (23±1° C.) to a height of 1.5 cm. A platform (5 cm height, 6.5 cm diameter) was located at the center of the cage. Animals can stay on the platform in order to stay dry but falls from it when it falls in deep sleep. […] During this period, animals were placed in a modified light/dark cycle with variable durations of the light and dark periods which change every day. This procedure is intended to disrupt the circadian rhythm.
The Sham group was housed in normal condition for the same period under a 12/12 h light/dark cycle.
After the end of the fatigue period, animals were placed in transparent polycarbonate cages (Type E, Iffa Credo, France, 450×300×200 mm, floor area=1032 cm^2), under a 12 h/12 h cycle. Cages were covered with a stainless steel grid in which food and a bottle are placed. A stainless steel removable divider separated food and water. The cages were placed in infrared photobeam detection systems (Acti-track, LSI Leticca, Panlab) allowing to record continuously the distance travelled in the cage. Locomotor activity was recorded continuously for 3 days. The test started at the beginning of the dark phase of the light/dark cycle.
Seventy-six animals were subjected to the fatigue procedure and to the tests as described above. Twelve animals (Sham group) were housed in standard condition.
(§1) After the end of the Fatigue procedure, animals were divided into 10 groups which received before tests (total: 3 administrations) a per-os (p.o., oral gavage) administration of: • Sham (no fatigue) group (N=12): Vehicle. • Control group (N=11): Vehicle. • Modafinil 32 (N=10): modafinil (32 mg/kg). • Modafinil 64 (N=10): modafinil (64 mg/kg). • Modafinil 128 (N=5): modafinil (128 mg/kg). • NLS-4 16 (N=5): NLS-4 (16 mg/kg). • NLS-4 32 (N=10): NLS-4 (32 mg/kg). • NLS-4 64 (N=10): NLS-4 (64 mg/kg). • NLS-4 128 (N=10): NLS-4 (128 mg/kg). • NLS-4 256 (N=5): NLS-4 (256 mg/kg).
Read-out: distance travelled during 24-h periods, 12-h dark and light periods and during 2-h periods.
Data are expressed as mean and standard error of mean (SEM).
Statistical analyses: Student's t test, repeated measure ANOVA.
A difference is considered statistically significant at p≤0.05.

[3] = Body weight during fatigue procedure and test period; assay type: in vivo, Rats, Sprague-Dawley; conditions: 32-128 mg/kg p.o.; test period
Method: FIG. 26 Body weight (in g; mean, SEM) before the beginning and during the fatigue procedure (F-D1-7) and during the test period (T-D1-D3+24 h).
Animals were weighed every day.
as §1

[4] = 32 mg/kg p.o., vs. Control (fatigue) group
[5] = 32 mg/kg p.o., vs. Sham (no fatigue) group
[6] = 64 mg/kg p.o., vs. Control (fatigue) group
[7] = 64 mg/kg p.o., vs. Sham (no fatigue) group
[8] = 128 mg/kg p.o., vs. Control (fatigue) group
[9] = 128 mg/kg p.o., vs. Sham (no fatigue) group

NC(=O)C[S+]([O-])C(c1ccccc1)c1ccccc1 (stereo not drawn) [Modafinil, reference compound]
Cocaine conditioned place preference following extinction [1]: strongly reinstated
Motor activity during the first 2-h periods following the dosing ([2]; 32 mg/kg p.o.): increased
Activity during the following 22 h ([2]; 32 mg/kg p.o., after the first 2-h period following dosing): few or no modification
Difference of distance travelled between the dark phase and the light phase [2, 4]: not significantly different
Distance travelled during the 12-h dark phase [2, 4]: not significantly different
Distance travelled during the 12-h light phase [2, 4]: not significantly different
Total distance travelled during the full 24-h period [2, 4]: not significantly different
Difference of distance travelled between the dark phase and the light phase [2, 5]: not lower than the Sham group on days 1 and 2 only
Distance travelled during the 12-h dark phase [2, 5]: lower than the Sham group during the dark phase on days 1 and 2 only
Distance travelled during the 12-h light phase [2, 5]: higher than the Sham group during the light phase on day 1 only
Total distance travelled during the full 24-h period [2, 5]: not significantly different
Motor activity during the first 2-h periods following the dosing ([2]; 64 mg/kg p.o.): increased
Difference of distance travelled between the dark phase and the light phase [2, 6]: higher; also recorded: increased
Distance travelled during the 12-h dark phase [2, 6]: higher
Distance travelled during the 12-h light phase [2, 6]: not significantly different
Total distance travelled during the full 24-h period [2, 6]: higher
Difference of distance travelled between the dark phase and the light phase [2, 7]: not significantly different
Distance travelled during the 12-h dark phase [2, 7]: not significantly different
Distance travelled during the 12-h light phase [2, 7]: not significantly different
Total distance travelled during the full 24-h period [2, 7]: not significantly different
Difference of distance travelled between the dark phase and the light phase [2, 8]: higher for the Modafinil 128 group than for the Control group on days 1 and 2 only; also recorded: increased
Distance travelled during the 12-h dark phase [2, 8]: higher for the Modafinil 128 group than for the Control group during the dark period on days 1 and 2 only
Distance travelled during the 12-h light phase [2, 8]: not significantly different
Total distance travelled during the full 24-h period [2, 8]: higher for the Modafinil 128 group than for the Control group on day 1 only
Distance travelled during the 12-h dark phase [2, 9]: increase the distance travelled in comparison with the Sham group during the dark phase on day 1
Total distance travelled during the full 24-h period [2, 9]: increase the distance travelled in comparison with the Sham group on day 1
Weight loss induced by the fatigue procedure [3]: not modified
